Measurements taken from patent publication US20110189670A1, “Circulating Tumor and Tumor Stem Cell Detection Using Genomic Specific Probes” (priority 2008, published 2011).

Test system: peripheral blood lymphocytes
Assay: Cytokinesis-block micronucleus (CBMN) assay, spontaneous and NNK-induced chromosomal damage (MN, NPBs, NBUDs)
Assay type: cell-based, human
Settings: 0.24 mM NNK, 2 hours
Protocol: The CBMN test was performed using the cytochalasin B technique described by Fenech and Morley and following recommendations from The International Collaborative Project on Micronucleus Frequency in Human Populations (HUMN Project) (22) to measure MN, NPBs and NBUDs in untreated cells and NNK-treated cells. Duplicate lymphocyte cultures were prepared for each study subject. Each culture contained 2.0×10^6 cells in 5 mL RPM1 1640 medium supplemented with 100 U/mL penicillin, 100 μg/mL streptomycin, 10% fetal bovine serum, and 2 mM L-glutamine (Gibco-Invitrogen, Carlsbad, Calif.) and 1% phytohemagglutinin (Remel, Lenexa, Kans.). For the cultures treated with NNK, 24 hours after initiation, the PBLs were centrifuged and the supernatant growth medium was removed and reserved. The PBLs were resuspended in 5 mL of serum-free RPM1 1640 medium supplemented with 0.24 mM NNK (CAS No 64091-91-4, National Cancer Institute, Midwest Carcinogen Repository, Kansas City, Mo.) and incubated at 37° C. in the presence of 5% COz for 2 hours. Next, the PBLs were washed twice with serum-free RPM1 1640, transferred to clean tubes and re-incubated for 48 hours in the reserved supernatant At 44 hours after initiation, cells were blocked in cytokinesis by adding cytochalasin B (Sigma, St Louis, Mo.; final concentration 4 μg/mL). Similarly, cultures for the determination of spontaneous damage (untreated cells) were handled in the same manner, with the exception of treatment with NNK. The total incubation time for all cultures was 72 hours. After incubation, the cells were fixed in 3:1 methanol:glacial acetic acid, dropped onto clean microscopic slides, air-dried and stained with Giemsa stain. For each sample, 1000 binucleated cells were scored blindly using a Nikon E-400 light optical microscope following the scoring criteria outlined by HUMN Project (2,11,23); the numbers of MN, NPBs, and NBUDs per 1000 binucleated cells were recorded For quality control, 20% of the slides were randomly selected and blindly rescored and the results compared with the original scoring
Tobacco smoke carcinogens and individual susceptibility play key roles in determining risk of lung cancer. There are a variety of biomarkers evaluating susceptibility to the carcinogenic effects of benzo[a]pyrene; however, no assays specifically evaluate susceptibility to the nicotine-derived nitrosamine 4-(methylnitrosamino)-1-(3-pyridyl)-1-butanone (NNK), a potent inducer of lung adenocarcinoma. In this case-control study, the inventors modified the cytokinesis-block micronucleus (CBMN) assay, an established biomarker for DNA damage and genomic instability, to evaluate susceptibility to NNK by measuring the frequency of NNK-induced chromosomal damage endpoints (micronuclei [MN]; nucleoplasmic bridges [NPBs] and nuclear buds “BUDS]) per 1000 binucleated peripheral blood lymphocytes. […] Forty-seven percent of the cases (compared with 12% of the controls) had ≧4 spontaneous MN, 66% of the cases (and no controls) had ≧4 spontaneous NPBs, and 25% of cases (versus 5% of controls) had ≧1 spontaneous NBUDs (P<001). Similarly, 40% of the cases (versus 6% of the controls) had ≧5 NNK-induced MN, 89% of the cases (and no controls) had ≧6 induced NPBs, and 23% of the cases (vs 2% of the controls had 2 induced NBUDs (P<001). As continuous variables, spontaneous MN, NPBs and NBUDs were associated with 2-, 29-, and 6-fold increases in risk for cancer. Similarly, NNK-induced 2 3-, 45.5-, and 10-fold increases in risk for cancer. The inventors also evaluated the use of results from the CBMN assay to predict cancer risk based on the numbers of MN, NPBs, and NBUDs defined by percentile cut-points in control data. The probability of being a cancer patient were 96%, 98% and 100% when using the 95th percentiles of spontaneous and NNK-induced MN, NPBs and NBUDs, respectively, in combination. […]

CN(CCCC(=O)c1cccnc1)N=O [NNK, 4-(methylnitrosamino)-1-(3-pyridyl)-1-butanone]
subjects with 2 induced NBUDs per 1000 binucleated peripheral blood lymphocytes (lung cancer cases (139)): 23% | subjects with ≧5 NNK-induced MN per 1000 binucleated peripheral blood lymphocytes (lung cancer cases (139)): 40% | subjects with ≧6 induced NPBs per 1000 binucleated peripheral blood lymphocytes (lung cancer cases (139)): 89% | subjects with 2 induced NBUDs per 1000 binucleated peripheral blood lymphocytes (matched controls (130)): 2% | subjects with ≧5 NNK-induced MN per 1000 binucleated peripheral blood lymphocytes (matched controls (130)): 6% | subjects with ≧6 induced NPBs per 1000 binucleated peripheral blood lymphocytes (matched controls (130)): no controls
